Laboratory results published in US12485121B2, “Antiviral agents for the treatment and prevention of HIV infection” (Pharmasyntez, Joint Stock Company, priority 2020, dated 2025).

System: HIV-1 subtype A strain 12RU 69831
Assay: Inhibition of HIV-1 reproduction / protection of infected MT-4 cells (living cell concentration, p24 production)
Format: cell-based
Conditions: Human immunodeficiency virus 1, MT4, MT-4 cells infected with HIV-1 at a constant virus dose of 300 CCID50; read-out: Activity against HIV-1 12RU 69831 strain (subtype A)
In short: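 MT-4 cells infected with HIV-1 subtype A 12RU 69831 at a constant 300 CCID50 dose and treated with various compound concentrations. Protection measured as change in living cell concentration; viral replication measured as p24 production.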

| Structure (SMILES) | IC50 [µM] |
| --- | --- |
| Cc1cc(C#N)cc(C)c1Oc1nc(Nc2ccc(C#N)cc2)nc2c1CN(C(=O)[C@@H](CO)NC(=O)OC(C)(C)C)CC2 [BB0274119, (R)-Tert-butyl (1-(4-(4-cyano-2,6-dimethylphenoxy)-2-((4-cyanophenyl)amino)-7,8-dihydropyrido[4,3-d]pyrimidine-6(5H)-yl)-3-hydroxy-1-oxopropane-2-yl)carbamate] | 103 |
| CCOC(=O)N1CCc2nc(Nc3ccc(C#N)cc3)nc(Oc3c(C)cc(C#N)cc3C)c2C1 [BB0273965, Ethyl 4-(4-cyano-2,6-dimethylphenoxy)-2-((4-cyanophenyl)amino)-7,8-dihydropyrido[4,3-d]pyrimidine-6(5H)-carboxylate] | 1.73 |
| Cc1cc(C#N)cc(C)c1Oc1nc(Nc2ccc(C#N)cc2)nc2c1CCN(C(=O)CCl)CC2 [BB0274133, 4-((7-(2-Chloroacetyl)-2-((4-cyanophenyl)amino)-6,7,8,9-tetrahydro-5H-pyrimido[4,5-d]azepine-4-yl)oxy)-3,5-dimethylbenzonitrile] | 10.5 |
| Cc1cc(C#N)cc(C)c1Oc1nc(Nc2ccc(C#N)cc2)nc2c1CN(C(=O)[C@H](Cc1ccc(O)cc1)NC(=O)OC(C)(C)C)CC2 [BB0274124, (S)-Tert-butyl (1-(4-(4-cyano-2,6-dimethylphenoxy)-2-((4-cyanophenyl)amino)-7,8-dihydropyrido[4,3-d]pyrimidine-6(5H)-yl)-3-(4-hydroxyphenyl)-1-oxopropane-2-yl)carbamate] | 342 |
